Results taken from PubChem BioAssay AID720512 (Broad Institute, 2013).
The source made the active and inactive calls. The rule behind the calls is not given here.

target: Toxin B (TcdB) glycohydrolase, Clostridioides difficile 630; experiment: TcdB glycohydrolase inhibitors, dose response, biochemical, cherry-pick, plate reader (AID 720512); settings: recombinant TcdB glycohydrolase activity

Row | Structure (SMILES) | AC50
1 | CCC(=O)N1CC[C@@H]2[C@H]1c1cc(-c3ccc(OC)cc3)ccc1N(C)[C@H]2CO | > 42 µM (inactive)
2 | COc1cc2c(cc1O)CC[n+]1cc3c(OC)c(OC)ccc3cc1-2 | > 39 µM (inactive)
3 | O=C(CCn1c(=O)oc2cc(Cl)ccc21)Nc1ccc(O)cc1 | > 20 µM (inactive)

same assay, conditions: recombinant TcdB glycohydrolase activity, at 10 µM (top of the series)

Row | Structure (SMILES) | activity change, negative = inhibition
4 | COc1ccc2[nH]c3c(=O)n(CCCCC(=O)NCCN4CCCC4)c(=S)[nH]c3c2c1 | inactive

same assay, conditions: recombinant TcdB glycohydrolase activity, at 19.5 µM (top of the series)

Row | Structure (SMILES) | activity change, negative = inhibition
5 | Cc1cc(N/N=C/c2ccncc2)nc2ccccc12 | inactive
6 | COc1ccccc1/C=N/NC(=O)CC(=O)NCc1ccccc1 | inactive
7 | COCCn1c(NC(=S)NC(=O)C2CC2)cc(=O)[nH]c1=O | inactive
8 | CCOC(=O)c1cc([N+](=O)[O-])sc1N | inactive
9 | COc1cc(/C(C)=N/NC(=O)CSc2nnc(C)s2)ccc1O | inactive
10 | C=CCc1ccc(O)c(-c2ccc(O)c(CC=C)c2)c1 | inactive
11 | CCC(=O)Nc1ccc2c(c1)OC[C@@H](C)N(C(=O)NC(C)C)C[C@@H](C)[C@@H](OC)CN(C)C2=O | inactive
12 | CC(=O)Nc1ccc(Oc2nc(-c3ccccn3)nc3ccccc23)cc1 | inactive
13 | CCCCn1c(-c2ccccc2C)nc2cc3[nH]c(=O)c(C(C)C)nc3cc21 | inactive
14 | Nc1ccc(OC(=O)Nc2ccc(O)cc2)cc1 | inactive
15 | CCCCn1c(CN2CCN(C(=O)c3ccco3)CC2)nc2c1c(=O)n(C)c(=O)n2C | inactive
16 | CCCc1cc(-c2n[nH]c(C(=O)OCC)c2-c2cscn2)c(O)cc1O | inactive
17 | COCc1c(Br)c(C)nc(OCC(=O)N/N=C/c2ccc(C)o2)c1C#N | inactive
18 | Clc1ccc(/C=C/c2ncc[nH]2)c(Cl)c1 | inactive
19 | NNC(=O)CCc1nc2ccc(O)cc2[nH]1 | inactive
20 | CCc1ccccc1NC(=S)N(Cc1ccc(C(=O)O)cc1)Cc1ccc(OC)c(OC)c1 | inactive
21 | Cc1cc(C)c(S(=O)(=O)N2CCCCC2C(=O)O)c(C)c1 (stereo unspecified) | inactive
22 | COc1cc2[nH]c(=S)n(Cc3cccs3)c(=O)c2cc1OC | inactive
23 | CC(=O)C1=CCC(c2ccccc2)N(S(=O)(=O)c2ccc(C)cc2)C1 (stereo unspecified) | inactive
24 | CN1CC(=O)N/C1=N\C(=O)Nc1ccc(O)cc1 | inactive
25 | Cc1ccc(/C=N/NC(=O)c2cccc(S(=O)(=O)Nc3ccccc3Cl)c2)o1 | inactive

Row | Structure (SMILES) | activity change, negative = inhibition
26 | COc1ccc(SC[C@H](C)CN2CC[C@H](NC(=O)OCc3ccccc3)CCC2=O)cc1 | inactive
27 | CCCCN(C)c1c(C)nc2ccc(C(=O)NCc3cccs3)cn12 | inactive
28 | Cc1ccc(C)c(CN2C(=O)COc3ccc(C(=O)c4ccccc4C(=O)O)cc32)c1 | inactive
29 | COc1ccc(NC(=O)C2CC(=O)N(c3ccccc3F)C2)cc1S(=O)(=O)N1CCCCC1 (stereo unspecified) | inactive
30 | CC1CCN(CCCn2c(=S)[nH]c3c(sc4ccccc43)c2=O)CC1 | inactive
31 | Cc1ccc(C(=O)NC(=S)NNC(=O)CC#N)cc1 | inactive
32 | COc1ccc(C2=NS(=O)(=O)N(C)C(C(=O)N(C)Cc3ccccc3)=C2)cc1 | inactive
33 | O=C(O)c1cccnc1SCc1ccccc1Cl | inactive
34 | O=C(N/C(=C\c1ccc(O)cc1)C(=O)N1CCCCC1)c1ccccc1 | inactive
35 | COc1ccccc1-n1c(SCC(=O)O)nc2c(sc(=S)n2-c2ccc(C)c(C)c2)c1=O | inactive
36 | COc1ccc(CCNC(=O)CCCn2nc(C)n3ccnc3c2=O)cc1OC | inactive
37 | COc1ccc(/C=C\c2onc(C)c2S(=O)(=O)N2CCC(C(=O)NCCC(C)C)CC2)cc1 | inactive
38 | Cc1ccc(C)c2nc(Cl)c(C3NC(=O)c4ccccc4N3)cc12 (stereo unspecified) | inactive
39 | O=C(c1ccc2c(c1)N(Cc1ccccc1F)C(=O)c1ccccc1S2)N1CCOCC1 | inactive
40 | COc1cc(/C=N/NC(=O)CCN2CCCCC2)ccc1O | inactive
41 | Cc1onc(-c2ccccc2)c1C(=O)N/N=C/c1cn(C)c2ccccc12 | inactive
42 | COc1ccc(Cl)cc1-n1c(=S)sc2c(=O)n(-c3ccc(F)cc3)c(SCC(=O)O)nc21 | inactive
43 | COCC#Cc1ccc2c(c1)O[C@@H](CN(C)C(=O)CC1CC1)[C@H](C)CN([C@@H](C)CO)S2(=O)=O | inactive
44 | Cc1ccc(NNC(=O)c2ccno2)cc1C | inactive
45 | Cc1cc(NC(=O)CCCN2C(=O)c3cccc4cccc(c34)C2=O)no1 | inactive
46 | O=C(OCC(=O)N1CCCCC1)c1ccccc1SCC(=O)N1CCCCC1 | inactive

Row | Structure (SMILES) | activity change, negative = inhibition
47 | CCOC(=O)N1CCN(C(=S)NC(=O)c2ccc(F)c(F)c2)CC1 | inactive
48 | O=[N+]([O-])c1c(Nc2ccccc2O)ccc2nonc12 | inactive
49 | CCCN1CCN(C(=O)C2CCN(S(=O)(=O)c3c(C)noc3/C=C/c3ccc(C)cc3)CC2)CC1 | inactive
50 | Cc1ccc(S(=O)(=O)Nc2cccnc2Oc2ccc(Cl)cc2)cc1 | inactive
51 | CCC(=O)c1cn(CC(=O)Nc2cccc(C)c2C)c2ccccc12 | inactive
52 | Cc1ccc(NS(=O)(=O)c2ccc(C)c(NC(=S)NCCN3CCOCC3)c2)c(C)c1 | inactive
53 | CCOc1ccccc1NC(=O)CCNS(=O)(=O)c1cccc2nonc12 | inactive
54 | COc1ccc(C2=NS(=O)(=O)N(C)C(C(=O)NC(C)c3ccccc3)=C2)cc1 (stereo unspecified) | inactive
55 | Cc1cc(C)nc(/N=C(\N)Nc2ccccc2-c2ccccc2)n1 | inactive
56 | CNC(=O)N(O)C1N(/N=C/c2ccc(SC)cc2)C(=S)SC1(C)C (stereo unspecified) | inactive
57 | CC1C(=O)NN=C1c1ccc([N+](=O)[O-])cc1 (stereo unspecified) | inactive
58 | CC(=O)c1ccc(NC(=O)CNCC(c2ccccc2)N(C)C)cc1 (stereo unspecified) | inactive
59 | CNC(=O)C[C@H]1CC[C@@H]2[C@@H](COc3ccc(NC(=O)c4cccc(OC)c4)cc3C(=O)N2C)O1 | inactive
60 | NC(=O)c1ccc(NC(=O)CSc2nnc(C3CC3)n2C2CC2)cc1 | inactive
61 | Cc1ccc(NCCN(C)C)c2c(=O)c3cc(O)ccc3sc12 | inactive
62 | O=c1onc(-c2ccccc2)n1Cc1ccc([N+](=O)[O-])cc1 | inactive
63 | COc1ccc(C2=NS(=O)(=O)N(C)C(C(=O)N3CCN(C)CC3)=C2)cc1 | inactive
64 | CN(C(=O)COC(=O)CNC(=O)c1ccccc1Cl)c1ccccc1 | inactive
65 | Nc1ccc(Sc2ccc(N)cc2)cc1 | inactive
66 | Cc1ccc(CSc2nc3nc(C)cc(C)c3c(=O)[nH]2)cc1 | inactive
